From patent US20240383954A1, “PEPTIDE INHIBITORS OF INTERLEUKIN-23 RECEPTOR AND THEIR USE TO TREAT INFLAMMATORY DISEASES” (Janssen Biotech, Inc., priority 2020, published 2024)
Positions of bridges follow the written chain, without caps; N, C: chain ends. Non-standard residues stand in square brackets, D forms with d. Residues, ends and D or L forms follow the SMILES beside them. *: point of attachment. 2Nal = N[C@@H](Cc1ccc2ccccc2c1)C(=O)O; Propanoyl(3,3,3-F3) = O=C(CC(F)(F)F)*; AEF = NCCOc1ccc(C[C@H](N)C(=O)O)cc1; αMeF = C[C@](N)(Cc1ccccc1)C(=O)O; Pen = CC(C)(S)[C@H](N)C(=O)O; Thp = NC1(C(=O)O)CCOCC1; Pentanoyl = CCCCC(=O)*; Propionyl = CCC(=O)*

Molecular target: IL-23R (Homo sapiens, UniProt Q5VWK5)
Sequence (Q5VWK5 24-629): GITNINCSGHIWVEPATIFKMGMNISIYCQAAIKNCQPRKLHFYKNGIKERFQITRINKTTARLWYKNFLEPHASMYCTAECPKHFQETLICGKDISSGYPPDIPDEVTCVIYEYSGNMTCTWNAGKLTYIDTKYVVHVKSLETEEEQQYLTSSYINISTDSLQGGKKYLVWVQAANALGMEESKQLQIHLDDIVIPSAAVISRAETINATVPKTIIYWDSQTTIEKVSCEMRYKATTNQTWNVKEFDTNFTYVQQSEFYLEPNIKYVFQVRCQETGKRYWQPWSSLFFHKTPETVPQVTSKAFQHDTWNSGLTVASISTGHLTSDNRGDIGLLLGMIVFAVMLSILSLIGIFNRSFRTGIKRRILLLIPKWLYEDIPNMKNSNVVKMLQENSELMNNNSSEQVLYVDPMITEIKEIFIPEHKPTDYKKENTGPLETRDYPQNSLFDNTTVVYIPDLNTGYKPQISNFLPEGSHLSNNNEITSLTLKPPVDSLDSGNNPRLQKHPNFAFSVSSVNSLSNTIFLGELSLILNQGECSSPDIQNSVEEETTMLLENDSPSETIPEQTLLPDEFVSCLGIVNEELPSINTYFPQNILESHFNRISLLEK
Assay: cell-based
Conditions: PBMC pSTAT3 IC50 (nM), PBMCs from healthy donors, IL-23 5 ng/mL, 30 minutes, phosphorylated STAT3
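Also: cryopreserved PBMCs stimulated at 37 °C in 5% CO2, then lysed, with phosphorylated STAT3 quantified in lysates using a phospho-STAT panel kit.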

Row | Structure (SMILES) | IC50
1 | CCC(=O)N[C@H](CCCNC(=N)N)C(=O)N[C@H]1CCSC[C@@H](C(=O)N[C@@H](Cc2ccc(OCCN)cc2)C(=O)N[C@@H](Cc2ccc3ccccc3c2)C(=O)NC2(C(=O)N[C@@H](CCC(=O)O)C(=O)N[C@@H](CC(N)=O)C(=O)NC3(C(N)=O)CCOCC3)CCOCC2)NC(=O)[C@H](CCC(N)=O)NC(=O)[C@H](Cc2c[nH]c3ccccc23)NC(=O)[C@H]([C@@H](C)O)NC(=O)[C@H](CCC(N)=O)NC1=O [Compound 2, [Propionic_acid]-[(D)Arg]-[Abu]-Q-T-W-Q-[Cys]-Phe[4-(2-aminoethoxy)]-[2-Nal]-[THP]-E-N-[THP]-NH2] | 3.3 nM
2 | CCC(=O)N[C@H](CCCNC(=N)N)C(=O)N[C@@H]1C(=O)N[C@@H](CCC(N)=O)C(=O)N[C@@H]([C@@H](C)O)C(=O)N[C@@H](Cc2c[nH]c3ccccc23)C(=O)N[C@@H](CCC(N)=O)C(=O)N[C@H](C(=O)N[C@@H](Cc2ccc(OCCN)cc2)C(=O)N[C@@H](Cc2ccc3ccccc3c2)C(=O)NC2(C(=O)N[C@@H](CCC(=O)O)C(=O)N[C@@H](CC(N)=O)C(=O)N[C@@](C)(Cc3ccccc3)C(N)=O)CCOCC2)C(C)(C)SSC1(C)C [Compound 3, [Propionic_acid]-[(D)Arg]-[Pen]-Q-T-W-Q-[Pen]-Phe[4-(2-aminoethoxy)]-[2-Nal]-[THP]-E-N-[a-MePhe]-NH2] (Propionyl-[dR][Pen]QTWQ[Pen][AEF][2Nal][Thp]EN[αMeF]-NH2; disulfide 2-7) | 40 nM
3 | C[C@@H](O)[C@@H]1NC(=O)[C@H](CCC(N)=O)NC(=O)[C@@H](NC(=O)[C@@H](CCCNC(=N)N)NC(=O)CC(F)(F)F)C(C)(C)SSC(C)(C)[C@@H](C(=O)N[C@@H](Cc2ccc(OCCN)cc2)C(=O)N[C@@H](Cc2ccc3ccccc3c2)C(=O)NC2(C(=O)N[C@@H](CCC(=O)O)C(=O)N[C@@H](CC(N)=O)C(=O)NC3(C(N)=O)CCOCC3)CCOCC2)NC(=O)[C@H](CCC(N)=O)NC(=O)[C@H](Cc2c[nH]c3ccccc23)NC1=O [Compound 5, [3,3,3-Trifluoropropionic acid]-[(D)Arg]-[Pen]-Q-T-W-Q-[Pen]-Phe[4-(2-aminoethoxy)]-[2-Nal]-[THP]-E-N-[THP]-NH2] ({Propanoyl(3,3,3-F3)}-[dR][Pen]QTWQ[Pen][AEF][2Nal][Thp]EN[Thp]-NH2; disulfide 2-7) | 4.7 nM
4 | CCC(=O)N[C@H](CCCNC(=N)N)C(=O)N[C@@H]1C(=O)N[C@@H](CCC(N)=O)C(=O)N[C@@H]([C@@H](C)O)C(=O)N[C@@H](Cc2c[nH]c3ccccc23)C(=O)N[C@@H](CCC(N)=O)C(=O)N[C@H](C(=O)N[C@@H](Cc2ccc(OCCN)cc2)C(=O)N[C@@H](Cc2ccc3ccccc3c2)C(=O)NC2(C(=O)N[C@@H](CCCCNC(=O)C(C)(C)C)C(=O)N[C@@H](CC(N)=O)C(=O)NC3(C(N)=O)CCOCC3)CCOCC2)C(C)(C)SSC1(C)C [Compound 7, [Propionic_acid]-[(D)Arg]-[Pen]-Q-T-W-Q-[Pen]-Phe[4-(2-aminoethoxy)]-[2-Nal]-[THP]-[Lys(COtBu)]-N-[THP]-NH2] | 8.6 nM
5 | CCCCC(=O)N[C@H](CCCNC(=N)N)C(=O)N[C@@H]1C(=O)N[C@@H](CCC(N)=O)C(=O)N[C@@H]([C@@H](C)O)C(=O)N[C@@H](Cc2c[nH]c3ccccc23)C(=O)N[C@@H](CCC(N)=O)C(=O)N[C@H](C(=O)N[C@@H](Cc2ccc(OCCN)cc2)C(=O)N[C@@H](Cc2ccc3ccccc3c2)C(=O)NC2(C(=O)N[C@@H](CCC(=O)O)C(=O)N[C@@H](CC(N)=O)C(=O)NC3(C(N)=O)CCOCC3)CCOCC2)C(C)(C)SSC1(C)C [Compound 9, [Pentanoic acid]-[(D)Arg]-[Pen]-Q-T-W-Q-[Pen]-Phe[4-(2-aminoethoxy)]-[2-Nal]-[THP]-E-N-[THP]-NH2] (Pentanoyl-[dR][Pen]QTWQ[Pen][AEF][2Nal][Thp]EN[Thp]-NH2; disulfide 2-7) | 29 nM
6 | CCC(=O)N[C@H](CCCNC(=N)N)C(=O)N[C@@H]1C(=O)N[C@@H](CCC(N)=O)C(=O)N[C@@H]([C@@H](C)O)C(=O)N[C@@H](Cc2c[nH]c3ccccc23)C(=O)N[C@@H](CCC(N)=O)C(=O)N[C@H](C(=O)N[C@@H](Cc2ccc(OCCN)cc2)C(=O)N[C@@H](Cc2ccc3ccccc3c2)C(=O)NC2(C(=O)N[C@@H](CCC(=O)O)C(=O)N[C@@H](CC(N)=O)C(=O)NC3(C(N)=O)CCOCC3)CCOCC2)C(C)(C)SSC1(C)C [Compound 10, [Propionic_acid]-[(D)Arg]-[Pen]-Q-T-W-Q-[Pen]-Phe[4-(2-aminoethoxy)]-[2-Nal]-[THP]-E-N-[THP]-NH2] (Propionyl-[dR][Pen]QTWQ[Pen][AEF][2Nal][Thp]EN[Thp]-NH2; disulfide 2-7) | 4.6 nM
7 | CC(=O)N[C@H](CCCNC(=N)N)C(=O)N[C@H]1CCSC[C@@H](C(=O)N[C@@H](Cc2ccc(OCCN)cc2)C(=O)N[C@@H](Cc2ccc3ccccc3c2)C(=O)NC2(C(=O)N[C@@H](CCC(=O)O)C(=O)N[C@@H](CC(N)=O)C(=O)N[C@@H](Cc3ccccc3)C(N)=O)CCOCC2)NC(=O)[C@H](CCC(N)=O)NC(=O)[C@H](Cc2c[nH]c3ccccc23)NC(=O)[C@H]([C@@H](C)O)NC(=O)[C@H](CCC(N)=O)NC1=O [Compound 17, Ac-[(D)Arg]-[Abu]-Q-T-W-Q-[Cys]-Phe[4-(2-aminoethoxy)]-[2-Nal]-[THP]-E-N-F-NH2] | 3.4 nM
8 | COc1ccc(C[C@H](NC(=O)[C@@H]2CSCC[C@H](NC(=O)[C@H](N)CCCNC(=N)N)C(=O)N[C@@H](CCC(N)=O)C(=O)N[C@@H]([C@@H](C)O)C(=O)N[C@@H](Cc3c[nH]c4ccccc34)C(=O)N[C@@H](CCC(N)=O)C(=O)N2)C(=O)N[C@@H](Cc2ccc3ccccc3c2)C(=O)NC2(C(=O)N[C@@H](CCC(=O)O)C(=O)N[C@@H](CC(N)=O)C(=O)NC3(C(N)=O)CCOCC3)CCOCC2)cc1 [Compound 22, [(D)Arg]-[Abu]-Q-T-W-Q-[Cys]-[Phe(4-OMe)]-[2-Nal]-[THP]-E-N-[THP]-NH2] | 22 nM
9 | COc1ccc(C[C@H](NC(=O)[C@@H]2CSCC[C@H](NC(=O)[C@@H](CCCNC(=N)N)NC(=O)Cn3cc(CCCF)nn3)C(=O)N[C@@H](CCC(N)=O)C(=O)N[C@@H]([C@@H](C)O)C(=O)N[C@@H](Cc3c[nH]c4ccccc34)C(=O)N[C@@H](CCC(N)=O)C(=O)N2)C(=O)N[C@@H](Cc2ccc3ccccc3c2)C(=O)NC2(C(=O)N[C@@H](CCC(=O)O)C(=O)N[C@@H](CC(N)=O)C(=O)NC3(C(N)=O)CCOCC3)CCOCC2)cc1 [Compound 25, FPrpTriazoleMe_Acid-[(D)Arg]-[Abu]-Q-T-W-Q-[Cys]-[Phe(4-OMe)]-[2-Nal]-[THP]-E-N-[THP]-NH2] | 21 nM
10 | CC(=O)N[C@H](CCCNC(=N)N)C(=O)N[C@H]1CCSC[C@@H](C(=O)N[C@@H](Cc2ccc(OCCN)cc2)C(=O)N[C@@H](Cc2ccc3ccccc3c2)C(=O)NC2(C(=O)N[C@@H](CCC(N)=O)C(=O)N[C@@H](CC(N)=O)C(=O)N[C@@](C)(Cc3ccccc3)C(N)=O)CCOCC2)NC(=O)[C@H](CCC(N)=O)NC(=O)[C@H](Cc2c[nH]c3ccccc23)NC(=O)[C@H]([C@@H](C)O)NC(=O)[C@H](CCC(N)=O)NC1=O [Compound 30, Ac-[(D)Arg]-[Abu]-Q-T-W-Q-[Cys]-Phe[4-(2-aminoethoxy)]-[2-Nal]-[THP]-Q-N-[a-MePhe]-NH2] | 25 nM
11 | CC(=O)N[C@H](CCCNC(=N)N)C(=O)N[C@H]1CCSC[C@@H](C(=O)N[C@@H](Cc2ccc(OCCN)cc2)C(=O)N[C@@H](Cc2ccc3ccccc3c2)C(=O)NC2(C(=O)N[C@@](C)(CCC(=O)O)C(=O)N[C@@H](CC(N)=O)C(=O)N[C@@](C)(Cc3c[nH]c4ccccc34)C(N)=O)CCOCC2)NC(=O)[C@H](CCC(N)=O)NC(=O)[C@H](Cc2c[nH]c3ccccc23)NC(=O)[C@H]([C@@H](C)O)NC(=O)[C@H](CCC(N)=O)NC1=O [Compound 31, Ac-[(D)Arg]-[Abu]-Q-T-W-Q-[Cys]-Phe[4-(2-aminoethoxy)]-[2-Nal]-[THP]-[aMeGlu]-N-ameW-NH2] | 16 nM
12 | CC(=O)N[C@H](CCCNC(=N)N)C(=O)N[C@H]1CCSC[C@@H](C(=O)N[C@@H](Cc2ccc(OCCN)cc2)C(=O)N[C@@H](Cc2ccc3ccccc3c2)C(=O)NC2(C(=O)N[C@@](C)(CCC(=O)O)C(=O)N[C@@H](CC(N)=O)C(=O)N[C@@H](Cc3ccc(C(N)=O)cc3)C(N)=O)CCOCC2)NC(=O)[C@H](CCC(N)=O)NC(=O)[C@H](Cc2c[nH]c3ccccc23)NC(=O)[C@H]([C@@H](C)O)NC(=O)[C@H](CCC(N)=O)NC1=O [Compound 34, Ac-[(D)Arg]-[Abu]-Q-T-W-Q-[Cys]-Phe[4-(2-aminoethoxy)]-[2-Nal]-[THP]-[aMeGlu]-N-[Phe(4-CONH2)]-NH2] | 5.8 nM
13 | CC(=O)N[C@H](CCCNC(=N)N)C(=O)N[C@H]1CCSC[C@@H](C(=O)N[C@@H](Cc2ccc(OCCN)cc2)C(=O)N[C@@H](Cc2ccc3ccccc3c2)C(=O)NC2(C(=O)N[C@@](C)(CCC(=O)O)C(=O)N[C@@H](CC(N)=O)C(=O)N[C@@H](Cc3ccc4ccccc4c3)C(N)=O)CCOCC2)NC(=O)[C@H](CCC(N)=O)NC(=O)[C@H](Cc2c[nH]c3ccccc23)NC(=O)[C@H]([C@@H](C)O)NC(=O)[C@H](CCC(N)=O)NC1=O [Compound 35, Ac-[(D)Arg]-[Abu]-Q-T-W-Q-[Cys]-Phe[4-(2-aminoethoxy)]-[2-Nal]-[THP]-[aMeGlu]-N-[2-Nal]-NH2] | 25 nM
14 | CC(=O)N[C@H](CCCNC(=N)N)C(=O)N[C@H]1CCSC[C@@H](C(=O)N[C@@H](Cc2ccc(OCCN)cc2)C(=O)N[C@@H](Cc2ccc3ccccc3c2)C(=O)NC2(C(=O)N[C@@](C)(CCC(=O)O)C(=O)N[C@@H](CC(N)=O)C(=O)N[C@@](C)(Cc3ccc(F)cc3)C(N)=O)CCOCC2)NC(=O)[C@H](CCC(N)=O)NC(=O)[C@H](Cc2c[nH]c3ccccc23)NC(=O)[C@H]([C@@H](C)O)NC(=O)[C@H](CCC(N)=O)NC1=O [Compound 36, Ac-[(D)Arg]-[Abu]-Q-T-W-Q-[Cys]-Phe[4-(2-aminoethoxy)]-[2-Nal]-[THP]-[aMeGlu]-N-[aMe(4-F)Phe]-NH2] | 14 nM
15 | CC(=O)N[C@H](CCCNC(=N)N)C(=O)N[C@H]1CCSC[C@@H](C(=O)N[C@@H](Cc2ccc(OCCN)cc2)C(=O)N[C@@H](Cc2ccc3ccccc3c2)C(=O)NC2(C(=O)N[C@@](C)(CCC(=O)O)C(=O)N[C@@H](CC(N)=O)C(=O)NC3(C(N)=O)CCOCC3)CCOCC2)NC(=O)[C@H](CCC(N)=O)NC(=O)[C@H](Cc2c[nH]c3ccccc23)NC(=O)[C@H]([C@@H](C)O)NC(=O)[C@H](CCC(N)=O)NC1=O [Compound 37, Ac-[(D)Arg]-[Abu]-Q-T-W-Q-[Cys]-Phe[4-(2-aminoethoxy)]-[2-Nal]-[THP]-[aMeGlu]-N-[THP]-NH2] | 11 nM
